Assays:
Assay type in all cases: cell-based, human
[1] = tested on: cyclin D1 protein (Thr286 phosphorylation); assay: Western blot of cyclin D1 and p-Thr286 cyclin D1 in HA-CD1 SW480 cells treated with kinase inhibitors; conditions: HA-WT CD1 SW480 cells; 24 hours of treatment
Description: Immunoblot analysis was performed. […] Asterisks indicate endogenous cyclin D1 expression. Panel B: Western blot analysis with fractionated nuclear proteins. […] Cell-cycle distribution was shown as bar graphs. Nuclear proteins were fractionated at indicated time points. […] Levels of total and phosphorylated cyclin D1 were determined.
Immunoblotting Analysis. […] SDS-PAGE was described previously (Tetsu and McCormick, 2003).
To identify the kinase responsible for cyclin D1 Thr286 phosphorylation, small molecule inhibitors of GSK3β, CDK4, and MEK were used to determine whether they were able to alter the phosphorylation and stability of ectopically expressed WT cyclin D1 protein in cultured cells (FIG. 5, Panels C and D). Ectopically expressed WT cyclin D1 protein was used to assess the stability of cyclin D1 protein. The endogenous expression was not assessed because transcription of cyclin D1 is regulated by the Ras/MAPK signaling. Therefore, endogenous expression of cyclin D1 is unable to be detected following inhibition of MAPK activities through the MEK/MAPK inhibitors or serum starvation (Tetsu et al., 2003. Cancer Cell. 3, 233-45).

GSK3α/β = assay: Phosphorylation-specific blot for GSK3α/β, SW480 cells; conditions: 24 hours of treatment
[2] = tested on: HCT 116 colon cancer cells; assay: Flow-cytometric cell cycle analysis, HCT 116 cells; conditions: BIO 24 hours
Description: Cell cycle analysis was carried out as described previously (Tetsu et al. (1999) Nature 398: 422-6; Tetsu et al. (2003) Cancer Cell 3: 233-45.

cyclin D1 = assay: Immunofluorescence, subcellular localization of cyclin D1 in HCT 116 cells; conditions: 5 μM BIO 24 hours, BrdU pulse
Description: Panels A-C: Immunofluorescence analysis. Nuclei were visualized with Hoechst dye. […] Panel A: Subcellular localization of cyclin D1. […] Panel B: Subcellular localization of the E3 ligase. […] Panel D: Immunoprecipitated-immunoblotting analysis. Panel E: Cell cycle distributions.
Immunofluorescence Analysis. Cultured cells on multiwell chamber slides (Nalge Nunc) were fixed with 4% paraformaldehyde in PBS and permeabilized in PBS containing 0.1% Triton X-100. Primary antibodies were diluted 1:100 in PBS containing 5% normal goat serum and applied for 2 hours. Proteins were detected either with mouse monoclonal antibodies or rabbit polyclonal antibodies followed by fluorescent substrate conjugated anti-mouse or anti-rabbit secondary antibody (Molecular Probes). For example, Cyclin D1 was detected either with mouse monoclonal cyclin D1 antibody (A-12, Santa Cruz) followed by fluorescent substrate conjugated anti-mouse or anti-rabbit secondary antibody (Molecular Probes). Nuclei were visualized using Hoechst 33258 (Molecular Probes). Fluorescence image was detected using LEICADMRD microscope (Leica).
Exponentially growing HCT 116 colon cancer cells were treated with the GSK3 inhibitor BIO for 24 hours. […] The subcellular distribution of cyclin D1 was visualized under the microscope (FIG. 12, Panel A). […]

cyclin D1 protein = assay: Pulse-chase analysis of cyclin D1 protein in HCT 116 cells; conditions: HCT 116; 5 μM BIO 24 hours
Description: FIG. 11 illustrates that ERK/MAPK is identified as the major kinase that is responsible for the stability of cyclin D1 protein. Panels A-F: Pulse-chase analysis of cyclin D1 protein in HCT 116 cells after exposure to the MEK inhibitor U0126 (A-C) or the GSK3 inhibitor BIO (D-F). Exponentially growing HCT 116 cells were treated with either DMSO or 10 μM of U0126 (A-C) for 30 minutes, or DMSO or 5 μM of BIO (D-F) for 24 hours. Panels A and D: Cells were pulse-labeled with ^35S-methionine for 1 hour. Subsequently these cells were chased with cold methionine for the indicated times, and then lysed respectively. Cyclin D1 was immunoprecipitated and then analyzed with SDS-PAGE. Autoradiography was performed. Levels of metabolically labeled-cyclin D1 were estimated by quantitative scanning using the Quantity One (Bio-Rad) software and blotted on the graph to determine the half-life of cyclin D1. […]
FIG. 18 illustrates that knockdown of FBXW8, or its partner CUL1 or CUL7 expression through siRNA stabilizes cyclin D1 expression in HCT 116 colon cancer cells. […] Cyclin D1 was immunoprecipitated and then analyzed with SDS-PAGE. Levels of metabolically labeled-cyclin D1 were estimated by quantitative scanning using the Quantity One software (Bio-Rad) and blotted on the graph to determine the half-life of cyclin D1 (D).
Pulse-Chase Analysis. […] Cyclin D1 was immunoprecipitated and then analyzed with SDS-PAGE. […]

O=C1Nc2cc(Br)ccc2/C1=C1/Nc2ccccc2/C1=N\O [BIO]
total cyclin D1 expression and its phosphorylated protein [1]: no significant difference
phosphorylated forms of GSK3α/β (GSK3α/β): disappeared
cell cycle profile [2]: without affecting
subcellular localization of cyclin D1 (cyclin D1): no significant difference
half-life of cyclin D1 protein (cyclin D1 protein): no significant difference

Source: patent US20070026431A1, “Modulation of MAPK-mediated phosphorylation and/or FBXW8-mediated ubiquitinylation of cyclin D1 in modulation of cellular proliferation” (priority 2005, published 2007)
